From US20250127799A1, “DRUG CONJUGATES FOR BONE MARROW PROTECTION” (priority 2023, published 2025)
Peptide text beside a SMILES is read from it. * marks the point of attachment. X1 = O=C(CCCCCN1C(=O)CC(*)C1=O)NCCCC(O)(P(=O)(O)O)P(=O)(O)O; X2 = O=P(O)(O)SCCNCCCN*

Legend:
[1] = test system: CD2F1 male mice; experiment: In vivo radioprotective effects: 30-day survival after Cobalt-60 gamma irradiation; details: 24 h before 9.2 Gy
Experimental: (§1) CD2F1 male mice (N=16) were subcutaneously (sc) injected with a single dose of two different conjugates. For one protective drug conjugate (Conjugate 1), the tested doses were 200, 400, and 800 mg/kg. The structure of Conjugate 1 included amifostine as the protective drug, alendronate as the bone-targeting ligand, and a protease-cleavable peptide having the sequence of CKPLGLWAL (SEQ ID NO: 33) with acetylation at the N-terminus (e.g., AcCKPLGLWAL; SEQ ID NO: 74). […] The irradiated mice were monitored for survival for 30 days post-irradiation. […] For the vehicle control group, the mortalities of mice occurred during 8 to 17 days post-irradiation, and the final survival rate was 6.25% (1 out of 16 survived), indicating significant mortality by gamma-irradiation.
For another protective drug conjugate (Conjugate 2), the tested doses were 250, 500, 600, and 700 mg/kg, and the irradiation was conducted at 24 h post-drug administration. The structure of Conjugate 2 included amifostine as the protective drug, alendronate as the bone-targeting ligand, and a protease-cleavable peptide having the sequence of CPLGLYAL (SEQ ID NO: 29) with acetylation at the N-terminus (e.g., AcCPLGLYAL; SEQ ID NO: 76).
as §1, with “a” for “two different conjugates. For one”, “1), and” for “1),”, “250, 300,” for “200, 400,”, “350” for “800”, “0% (0” for “6.25% (1”
as §1, with “CD2F1 male mice (N=16) were subcutaneously (sc) injected CD2F1” for “CD2F1”, “a” for “two different conjugates. For one”, “1), and” for “1),”, “250, 300,” for “200, 400,”, “350” for “800”
CD2F1 male mice (N=16) were subcutaneously (sc) injected CD2F1 male mice (N=16) were subcutaneously (sc) injected with a single dose of a protective drug conjugate (Conjugate 1), and the tested doses were 50, 100, and 200 mg/kg. The structure of Conjugate 1 included amifostine as the protective drug, alendronate as the bone-targeting ligand, and a protease-cleavable peptide having the sequence of CKPLGLWAL (SEQ ID NO: 33) with acetylation at the N-terminus (e.g., AcCKPLGLWAL; SEQ ID NO: 74). […] The irradiated mice were monitored for survival for […] post-irradiation. […] For the vehicle control group, the mortalities of mice occurred during 8 to 17 days post-irradiation, and the final survival rate was 0% (0 out of 16 survived), indicating significant mortality by gamma-irradiation.
CD2F1 male mice (N=16) were subcutaneously (sc) injected CD2F1 male mice (N=16) were subcutaneously (sc) injected with a single dose of a protective drug conjugate, i.e., Conjugate 3. The tested doses were 250, 300, and 350 mg/kg. […]

[2] = target: matrix metalloproteinase 9 (MMP9) (Homo sapiens, UniProt P14780); experiment: In vitro matrix metalloproteinase-based conjugate cleavage; assay type: biochemical; details: isolated enzyme, MMP9, 37° C., up to 20 h, read-out: T1/2 of cleavage (converted)
Sequence of matrix metalloproteinase 9 (MMP9) (P14780 94-707, species assumed): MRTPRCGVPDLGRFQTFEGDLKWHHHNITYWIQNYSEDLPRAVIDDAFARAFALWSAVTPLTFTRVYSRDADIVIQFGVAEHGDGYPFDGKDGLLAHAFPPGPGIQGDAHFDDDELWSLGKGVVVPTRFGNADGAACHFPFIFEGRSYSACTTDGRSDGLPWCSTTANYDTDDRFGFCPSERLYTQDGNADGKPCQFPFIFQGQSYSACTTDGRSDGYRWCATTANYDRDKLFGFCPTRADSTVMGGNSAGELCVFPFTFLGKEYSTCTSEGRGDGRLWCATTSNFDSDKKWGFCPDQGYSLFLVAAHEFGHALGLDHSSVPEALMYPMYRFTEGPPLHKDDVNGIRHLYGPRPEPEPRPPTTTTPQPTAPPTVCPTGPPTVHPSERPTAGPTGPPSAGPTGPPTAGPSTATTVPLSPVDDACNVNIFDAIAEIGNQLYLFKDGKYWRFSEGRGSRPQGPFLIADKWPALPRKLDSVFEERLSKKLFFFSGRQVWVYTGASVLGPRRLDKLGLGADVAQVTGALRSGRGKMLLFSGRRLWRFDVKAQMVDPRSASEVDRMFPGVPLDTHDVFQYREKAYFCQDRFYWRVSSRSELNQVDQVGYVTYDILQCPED
Experimental: In this exemplary representative cleavage experiment, a 90 μL stock solution of protective drug conjugate (1 mg/mL) was mixed with 2 μL of matrix metalloproteinase 9 (MMP9) (10 unit/μL) and 8.2 μL of 50 mM CaCl2 solution, followed by incubation at 37° C. for up to 20 h. A 10 μL sample was taken at 0.3, 1, 2, 4, 9, or 20 h for the HPLC analysis. Three conjugates having different peptide sequences (Conjugates 1-3) were used in this test: Conjugate 1-peptide sequence of CPLSLYAL (SEQ ID NO: 65); Conjugate 2-peptide sequence of CPLSLYSL (SEQ ID NO: 66); and Conjugate 3-peptide sequence of CPLGLAL (SEQ ID NO: 67). The concentrations of the conjugate residual in samples were normalized and presented as cleavage ratios.

## CC(=O)N[C@@H](CSC1CC(=O)N(CCCCCC(=O)NCCCC(O)(P(=O)(O)O)P(=O)(O)O)C1=O)C(=O)N1CCC[C@H]1C(=O)N[C@@H](CC(C)C)C(=O)NCC(=O)N[C@@H](CC(C)C)C(=O)N[C@@H](Cc1ccc(O)cc1)C(=O)N[C@@H](C)C(=O)N[C@@H](CC(C)C)C(=O)NCCCNCCSP(=O)(O)O (some centres unmarked) [Conjugate 2] (Ac-C(X1)PLGLYAL-X2)
[1]; 250 mg/kg sc
  30-day survival rate: 68.75%
[1]; 500 mg/kg sc
  30-day survival rate: 75%
[1]; 600 mg/kg sc
  30-day survival rate: 93.75%
[1]; 700 mg/kg sc
  30-day survival rate: 100%
[2]
  half-life at 0.898 mg/mL: ~7.5 h
